From patent US5416090A, “Method of treating inflammation” (priority 1992, dated 1995)

Tests used:
[1] = test system: delayed type hypersensitivity (picryl chloride induced foot pad swelling); assay: Murine delayed type hypersensitivity (DTH) response, picryl chloride; type: in vivo, mouse (Balb/c); conditions: for inhibition of DTH response: FIG. 8 legend
Description: The activity of ergoline compounds was also evaluated in a murine delayed-type hypersensitivity (DTH) assay. The DTH assay was performed in substantial accordance with the method set forth in Example 1. Briefly, mice were sensitized by topical administration of picryl chloride on day 1 of the assay. On day 4 paw size was determined and recorded and the paw was then challenged with picryl chloride. The challenged paw was remeasured on day 5 to quantitate the DTH response via the increase in paw size.
(§1) Male Balb/c mice (Charles River) weighing 20 to 25 g were used in all DTH studies. When adrenalectomized studies were carried out, sham surgery and adrenalectomized mice were obtained from the vendor. Animals were maintained on a 12:12 hour light:dark cycle. Mice were allowed ad lib access for food (Purina lab chow) and water (normal saline for adrenalectomized animals).
(§2) A DTH response was assessed by measuring the degree of rear foot pad swelling induced by picryl chloride. On day 0, mice were sensitized with 100 μl of 5% picryl chloride (in ethanol), which was applied to a shaved abdomen. Negative control groups were shaved but not sensitized. On day 3, mice were anesthetized with methoxyflurane, and the baseline rear foot pad thickness was measured with a micrometer (Mitutoyo) in μ, and was recorded in duplicate. Fifty μl of picryl chloride was then applied to each pad with a pipet (Rainen) while the animal was unconscious. The negative controls also received picryl chloride at this point to control for primary irritancy. Twenty-four hours later, the mice were sacrificed by CO2 asphyxiation and each rear foot pad was again measured in duplicate, and any evidence of foot pad swelling was calculated. The mean rear foot swelling change of both pads for each animal from days 3 to 4 was used as the index of immune function in the DTH assay.
(§3) Unless otherwise stated all animals were given four subcutaneous doses of test compound just prior to picryl chloride sensitization on day 0, on day 1 and day 2, and just prior to picryl chloride challenge on day 3. In a few experiments, compounds were administered via oral or intraperitoneal routes. All drugs were delivered as suspensions in 1% carboxy-methylcellulose (also contained 0.8% NaCl, 1% polysorbate-80, 1.4% benzyl alcohol). Carboxymethyl-cellulose (1%) was used in control injections.

[2] = test system: dopamine receptor (DTH response); assay: Reversal of DTH inhibition by dopamine receptor antagonists; type: in vivo, mouse
Description: as §1, §2, §3

corticosterone = assay: Serum/plasma corticosterone levels in mice; type: in vivo, mouse (Balb/C); conditions: FIG. 10 Panel A; 1 and 3 hr. following injection
From the text: Dopamine agonists are known to elevate circulating glucocorticoid levels, via activation of the hypothalamo-pituitary-adrenal axis. […] Since glucocorticoids are potential endogenous anti-inflammatory substances, this action is one potential mechanism for the anti-inflammatory effect of the ergolines. However, in subsequent inflammation studies, the anti-inflammatory effects of D-1-isopropyl-6-n-propyl-8β-methylthiomethyl ergoline were retained in mice lacking an adrenal gland and therefore devoid of the increase in circulating corticosterone. (FIG. 10B)
Both Balb/C mice (male, approximately 20 g, Charles Rivers) and Lewis rats (male, approximately 200 g, Charles River or Harlan Sprague Dawley) were used in neuroendocrine studies. Animals were maintained on a 12:12 hour light:dark cycle and were allowed ad lib access for food (Purina lab chow) and water. Experimental groups consisted of 6 to 8 animals.
After dosing with test compounds, animals were sacrificed by decapitation at 1, 3, 8 or 24 hour intervals. Trunk blood was collected, allowed to clot and serum obtained after centrifugation (3000 rpm for 15 min.). Serum was aliquoted and stored at -70° C. for subsequent radioimmunoassays. Serum prolactin was determined by radioimmunoassay. Serum corticosterone levels were determined with a kit designed for such determinations and obtained from ICN.

[3] = test system: carrageenan induced paw swelling; assay: Carrageenan edema model (acute paw inflammation); type: in vivo, rat (Lewis)
inflammatory models = conditions: cited from earlier work
α adrenergic receptors = conditions: background; cited from earlier work
D-2 dopamine = conditions: background; cited from earlier work
dopamine receptor = assay: Affinity at the dopamine receptor; type: binding
[4] = Table 2, single oral dose 0.1 mg/kg
[5] = Table 2, single oral dose 0.3 mg/kg
[6] = Table 2, single oral dose 1.0 mg/kg
[7] = Table 2, single oral dose 3.0 mg/kg
[8] = Table 1, single oral dose 30.0 mg/kg
[9] = Table 2, single oral dose 30.0 mg/kg

Q: Which “reduction of paw swelling (DTH)” value ([1]; 10 mg/kg) does the source give for CCCN1CCC[C@H]2Cc3nc(N)ccc3C[C@@H]21 (relative stereo) [Compound 7, trans-(±)-2-amino-6-propyl-5,5a,6,7,8,9,9a,10-octahydropyrido [2-3 g] quinoline] here?
A: Its value is “statistically significant”.

Q: With O=c1[nH]c2ccccc2n1CCCN1CCC(n2c(=O)[nH]c3cc(Cl)ccc32)CC1 [Domperidone] as the molecule, how does the “effect on anti-inflammatory activity of D-1-isopropyl-6-n-propyl-8β-methylthiomethyl ergoline” value ([2]; FIG. 9 Panel B) read?
A: Its value is “reversed the anti-inflammatory activity”.

Q: With CCCN1CC(CO)CC2Cc3n[nH]cc3CC21 (stereo not drawn) [Compound 10, 7-(5-n-propyl-trans-4,4a,5,6,7,8,8a, 9-Octahydro-2H-pyrazolo[3,4-g]quinoline) methanol] as the molecule, how does the “reduction of paw swelling (DTH)” value ([1]; 3 mg/kg) read?
A: Its value is “statistically significant”.

Q: And the “reduction of paw swelling (DTH)” value ([1]; 10 mg/kg)?
A: The value was “statistically significant”.

Q: What about the “effect on plasma corticosterone” value (corticosterone) of the same molecule?
A: Its value is “increase plasma cortiosterone”.

Q: With CCCN1C[C@H](CSC)C[C@@H]2c3cccc4[nH]nc(c34)C[C@H]21 [Compound 4, D-2-aza-6-n-propyl-8β-methylthiomethyl ergoline] as the molecule, how does the “reduction of paw swelling (DTH)” value ([1]; 1 mg/kg) read?
A: Its value is “reduced paw swelling”.

Q: What about the “reduction of paw swelling (DTH)” value ([1]; 3 mg/kg) of the same molecule?
A: The value was “statistically significant”.

Q: And the “reduction of paw swelling (DTH)” value ([1]; 10 mg/kg)?
A: Its value is “statistically significant”.

Q: Which “% Inhibition” value [3, 4] does the source give for CC(C)CC1C(=O)N2CCCC2C2(O)OC(NC(=O)C3C=C4c5cccc6[nH]c(Br)c(c56)CC4N(C)C3)(C(C)C)C(=O)N12 (stereo not drawn) [Bromocriptine, α-bromo-ergocryptine] here?
A: The value was 0%.

Q: What about the “Paw Weight Difference” value [3, 4] of the same molecule?
A: Its value is 0.923 ± 0.039 g.

Q: And the “% Inhibition” value [3, 5]?
A: The value was 0%.

Q: What about the “Paw Weight Difference” value [3, 5] of the same molecule?
A: The value was 0.937 ± 0.060 g.

Q: And the “% Inhibition” value [3, 6]?
A: Its value is 0%.

Q: And the “Paw Weight Difference” value [3, 6]?
A: The value was 0.803 ± 0.046 g.

Q: What about the “% Inhibition” value [3, 7] of the same molecule?
A: Its value is 0%.

Q: What about the “Paw Weight Difference” value [3, 7] of the same molecule?
A: The value was 0.931 ± 0.067 g.

Q: What about the “activity in the acute inflammation model” value ([3]; doses as high as 3 mg/kg, po) of the same molecule?
A: The value was “no activity”.

Q: What about the “basis of activity in inflammatory models of the literature” value (inflammatory models) of the same molecule?
A: Its value is “due to immunosuppressive activity”.

Q: And the “action at α adrenergic receptors” value (α adrenergic receptors)?
A: Its value is “act at α adrenergic receptors”.

Q: What about the “D-2 dopamine agonist activity” value (D-2 dopamine) of the same molecule?
A: The value was “D-2 dopamine agonists”.

Q: With CC(C(=O)O)c1cccc(Oc2ccccc2)c1 (stereo not shown) [Fenoprofen] as the molecule, how does the “effectiveness in suppressing inflammation compared with pergolide” value ([3]; 30 mg/kg) read?
A: The value was “not as effective as pergolide”.

Q: What about the “% Inhibition” value [3, 8] of the same molecule?
A: The value was 52%.

Q: And the “Paw Weight Difference” value [3, 8]?
A: Its value is 0.353 ± 0.043 g.

Q: And the “% Inhibition” value [3, 9]?
A: The value was 55%.

Q: And the “Paw Weight Difference” value [3, 9]?
A: Its value is 0.379 ± 0.028 g.

Q: With CCN1CCCC1CNC(=O)c1cc(S(N)(=O)=O)ccc1OC (stereo not shown) [Sulpiride] as the molecule, how does the “effect on inflammatory response in animals given 10 mg/kg of compound 10” value ([2]; FIG. 9 Panel C, sulpiride 3, 10 and 30 mg/kg) read?
A: The value was “partially restored the inflammatory response”.

Q: With CCCN1CCC[C@H]2Cc3nc(N)sc3C[C@@H]21 (racemic) [Compound 6, trans-(±)-2-amino-5-n-propyl-4,4a,5,6,7,8,8a,9-octahydrothiazolo [4,5-g] quinoline] as the molecule, how does the “reduction of paw swelling (DTH)” value ([1]; 10 mg/kg) read?
A: The value was “statistically significant”.

Q: For CCCCCN1C[C@H](CSC)C[C@@H]2c3cccc4[nH]cc(c34)C[C@H]21 [D-6-n-pentyl-8β-methylthiomethyl ergoline], which anti-inflammatory activity ([1]; FIGS. 7-9A studies) is on record?
A: Its anti-inflammatory activity is “no anti-inflammatory activity”.

Q: And the “affinity at the dopamine receptor” value (dopamine receptor)?
A: The value was “minimal affinity”.

Q: Which results are given for CCCN1CC(CO)=C[C@H]2Cc3n[nH]cc3C[C@@H]21 (relative stereo) [Compound 9, 7-(5-n-propyl-trans-4,4a,5,6,8a,9-hexahydro-2H-pyrazolo[3,4-g)quinoline) methanol]?
A: reduction of paw swelling (DTH) ([1]; 3 mg/kg): statistically significant; reduction of paw swelling (DTH) ([1]; 10 mg/kg): statistically significant; inhibition of DTH response [1]: inhibition

Q: With CCCN1CCC[C@H]2Cc3nc(N)ncc3C[C@@H]21 (racemic) [Compound 8, trans-(±)-2-amino-6-n-propyl-5,5a,6,7,8,9,9a,10-octahydropyrimido[4,5-g] quinoline] as the molecule, how does the “reduction of paw swelling (DTH)” value ([1]; 1 mg/kg) read?
A: Its value is “statistically significant decrease in inflammation”.

Q: What about the “inhibition of DTH response” value [1] of the same molecule?
A: Its value is “lack of inhibition”.
